# According to US8815535B2, “Disk diffusion assay for oritavancin” (The Medicines Company, priority 2011, dated 2014):
# Several values for one entry are separate records, joined by “and”; a condition that tells them apart may be missing. Equal values may be shown once. Read-outs that look alike come from different tables or passages of the source.
# What was measured:
# MRSA T998528 = experiment: Broth microdilution (BMD) MIC; assay type: cell-based; details: Staphylococcus aureus, read-out: Oritavancin BMD MIC
# Description: (§1) To date, only the broth microdilution (BMD) minimal inhibitory concentration (MIC) test is a reference method accepted by the Clinical Laboratory Standards Institute (CLSI) for use in determining the susceptibility of a bacterial isolate to oritavancin (Methods for Dilution Antimicrobial Susceptibility Tests for Bacteria That Grow Aerobically; Approved Standard, CLSI document M7-A8, 8th ed. Clinical and Laboratory Standards Institute, Wayne, Pa. 2009; Performance Standards for Antimicrobial Susceptibility Testing; Eighteenth Informational Supplement, CLSI document M100-S18, 7th ed. Clinical and Laboratory Standards Institute, Wayne, Pa. 2008).
# MRSA U933237 = experiment: Broth microdilution (BMD) MIC; assay type: cell-based; details: Staphylococcus aureus, read-out: Oritavancin BMD MIC
# Description: as §1
# VISA Mu50 (ATCC 700699) [1] = experiment: Broth microdilution (BMD) MIC; assay type: cell-based; details: Staphylococcus aureus; VISA ATCC 700699 (Mu50); read-out: Oritavancin BMD MIC
# Description: as §1
# MSSA V406985 = experiment: Broth microdilution (BMD) MIC; assay type: cell-based; details: Staphylococcus aureus, read-out: Oritavancin BMD MIC
# Description: as §1
# VISA Mu50 (ATCC 700699) [2] = experiment: Disk diffusion assay (zone of inhibition); assay type: cell-based; details: Staphylococcus aureus, Oxoid disks, 20 μl of 18 mg/ml oritavancin in 5% P80, stored 30 days at room temperature, prediffusion 6 hours at 4° C., read-out: Inhibition zone diameter
# MSSA ATCC 25923 = experiment: Disk diffusion assay (zone of inhibition); assay type: cell-based, Staphylococcus aureus; details: for Average zone diameter: disks from 18 mg/ml oritavancin in 5% P80, 3-hour prediffusion; for zone of inhibition at 9000 µg/mL: read-out: Inhibition zone diameter, ATCC 25923; for zone of inhibition at 50 µg/disc: read-out: Inhibition zone diameter, MSSA ATCC 25923, 50 μg oritavancin, dried approx. 3 hours, estimate of diameter; for zone of inhibition at 45 µg/disc: 45 μg oritavancin in 0.002% P80; for zone of inhibition at 90 µg/disc: 90 μg oritavancin in 0.002% P80
# Description: The study was designed to identify conditions that improve oritavancin diffusion in agar and consequently yield a zone diameter ≧15 mm for the CLSI quality control strain MSSA ATCC 25923. Excipients that increased the disk diffusion of oritavancin in agar relative to disks containing only oritavancin were identified and selected for further study. […] A prediffusion step at room temperature was introduced to maximize oritavancin diffusion prior to initiation of bacterial growth. In this step, the antimicrobial disks were placed on agar plates seeded with a bacterial isolate and incubated at room temperature for 3 hours. Plates were then incubated overnight at 37° C. Zone diameters around the disks in which bacterial growth was inhibited were measured with a ruler and reported in millimeters.
# Ethanol-sterilized Whatman paper disks (6 mm diameter) were allowed to dry then impregnated with 20 microliters of oritavancin solution containing total amounts ranging from 90 to 360 micrograms. Disks were allowed to dry at room temperature for various times prior to use.
# Bacterial suspensions were prepared and adjusted to an optical density of 0.1 at 600 nm. […] The plate was swabbed a second time, perpendicular to the orientation of the first swab. To assess the impact of prediffusion on diameter of inhibition zones, two disks were immediately placed on one half of the plate and the plate was incubated for 3 hours at room temperature. After 3 hours, two additional disks were placed on the other half of the plate then the plate was incubated overnight at 37° C. Zone diameters were measured with a ruler and reported in millimeters. […]
# Oritavancin powder was dissolved in freshly-prepared solutions of the indicated excipients at concentrations of 0.625, 1.25, 2.5, 5, and 10 mg/ml (adjusted for potency based on lot 875561L00 purity of 83.1%) by vortexing for a minimum of 5 minutes. Oritavancin solutions in the various excipients, while not visually clear, were free from any apparent particulates as assessed visually. Sterile Oxoid blank disks were impregnated with 20 μl of these oritavancin solutions, resulting in oritavancin disk loads ranging from 12.5 to 200 μg. Unless indicated otherwise, disks were allowed to dry overnight at room temperature prior to use.
# […] Swabbing was continued at a right angle and then at an oblique angle to the first and second swabs. Disks were placed upon the seeded plates with sterile forceps. Plates were then incubated overnight at 37° C. and inhibition zone diameters were measured with a ruler and reported in millimeters.
# [3] = Staphylococcus aureus, read-out: Average zone diameter, MSSA ATCC 25923, CAMHA containing 1% P80, no prediffusion
# [4] = Staphylococcus aureus, read-out: Average zone diameter, MSSA ATCC 25923, CAMHA containing 1% P80, prediffusion
compound,measurement,setting,value
"CN[C@H](CC(C)C)C(=O)N[C@H]1C(=O)N[C@@H](CC(N)=O)C(=O)N[C@H]2C(=O)N[C@H]3C(=O)N[C@H](C(=O)N[C@H](C(=O)O)c4cc(O)cc(O)c4-c4cc3ccc4O)[C@H](O[C@H]3C[C@](C)(N)[C@@H](O)[C@H](C)O3)c3ccc(c(Cl)c3)Oc3cc2cc(c3O[C@@H]2O[C@H](CO)[C@@H](O)[C@H](O)[C@H]2O[C@H]2C[C@](C)(NCc3ccc(-c4ccc(Cl)cc4)cc3)[C@@H](O)[C@H](C)O2)Oc2ccc(cc2Cl)[C@H]1O [oritavancin, N-(4-(4-chlorophenyl)benzyl)A82846B]",MIC,MRSA T998528,0.015 µg/mL
same,MIC,MRSA U933237,0.12 µg/mL
same,MIC,VISA Mu50 (ATCC 700699) [1],1 µg/mL
same,MIC,MSSA V406985,0.12 µg/mL
same,zone of inhibition at 18000 µg/mL,VISA Mu50 (ATCC 700699) [2],13 mm
same,Inhibition zone diameter,"MSSA ATCC 25923; ATCC 25923, 25 μg (20 μl of 1.25 mg/ml) in 4% P80/Span 80 (1:1), calcium alginate swab, dried overnight",22 mm and 20 mm
same,Inhibition zone diameter,"MSSA ATCC 25923; ATCC 25923, 20 μl of 9 mg/ml oritavancin in 2.5% P80, prediffusion at 4° C. 3 h, duplicate determinations",19 mm
same,Inhibition zone diameter,"MSSA ATCC 25923; ATCC 25923, 20 μl of 9 mg/ml oritavancin in 2.5% P80, prediffusion at 4° C. 6 h, duplicate determinations",22 mm
same,Inhibition zone diameter,"MSSA ATCC 25923; ATCC 25923, 20 μl of 9 mg/ml oritavancin in 2.5% P80, prediffusion at room temperature 3 h, duplicate determinations",17 mm
same,Inhibition zone diameter,"MSSA ATCC 25923; ATCC 25923, 20 μl of 9 mg/ml oritavancin in 2.5% P80, prediffusion at room temperature 6 h, duplicate determinations",18.5 mm
same,Inhibition zone diameter,"MSSA ATCC 25923; ATCC 25923, Oxoid disks, 20 μl of 18 mg/ml oritavancin in 5% P80, stored 30 days at room temperature, prediffusion 6 hours at 4° C.",17.5 mm
same,Average zone diameter,"MSSA ATCC 25923; ATCC 25923, stored 1 day at room temperature",15.0 mm
same,Average zone diameter,"MSSA ATCC 25923; ATCC 25923, stored 4 days at room temperature",15.8 mm
same,Average zone diameter,"MSSA ATCC 25923; ATCC 25923, stored 6 days at room temperature",16.3 mm
same,Average zone diameter,"MSSA ATCC 25923; ATCC 25923, stored 8 days at room temperature",17.0 mm
same,Average zone diameter,"MSSA ATCC 25923; ATCC 25923, used same day",14.0 mm
same,Increase of the area of the zone of clearance by prediffusion,"MSSA ATCC 25923; MSSA ATCC 25923, 360 μg oritavancin in 0.002% P80",approximately 24%
same,Zone diameters,"MSSA ATCC 25923; MSSA ATCC 25923, CAMHA containing 1% P80, disks with various concentrations of oritavancin in 0.002% P80, even with 3 h prediffusion",< 15 mm
same,Inhibition zone diameter,"MSSA ATCC 25923; MSSA ATCC 25923, Oxoid disk, 180 μg, 5% P80, stored 7 days, prediffusion 3 h at 4° C., duplicates",12.5 mm
same,Inhibition zone diameter,"MSSA ATCC 25923; MSSA ATCC 25923, Oxoid disk, 270 μg, 5% P80, stored 7 days, prediffusion 3 h at 4° C., duplicates",13.5 mm
same,Inhibition zone diameter,"MSSA ATCC 25923; MSSA ATCC 25923, Whatman #5 disk, 180 μg, 2.5% P80, stored 7 days, prediffusion 3 h at 4° C., duplicates",16 mm
same,Inhibition zone diameter,"MSSA ATCC 25923; MSSA ATCC 25923, Whatman #5 disk, 360 μg, 5% P80, stored 7 days, prediffusion 3 h at 4° C., duplicates",16.5 mm
same,Zone diameter,"MSSA ATCC 25923; MSSA quality control strain ATCC 25923, different combinations of the alterations to the traditional assay",up to 24 mm
same,zone of inhibition at 360 µg/disc,"MSSA ATCC 25923; Staphylococcus aureus, 3 h, read-out: Average zone diameter, ATCC 25923, 360 μg oritavancin, excipient 10% HPCD, disks made same day, 3 h prediffusion, average of 2 disks",17.5 mm
same,zone of inhibition at 9000 µg/mL,"MSSA ATCC 25923; Staphylococcus aureus, 3 h, 20 μl of 9 mg/ml oritavancin in 2.5% P80, prediffusion at 4° C. 3 h, duplicate determinations",18 mm
same,zone of inhibition at 9000 µg/mL,"MSSA ATCC 25923; Staphylococcus aureus, 3 h, 20 μl of 9 mg/ml oritavancin in 2.5% P80, prediffusion at room temperature 3 h, duplicate determinations",16.5 mm
same,zone of inhibition at 50 µg/disc,"MSSA ATCC 25923; Staphylococcus aureus, 3 h, 0.5% P80/Span 80 (35:65) in water",10 mm
same,zone of inhibition at 50 µg/disc,"MSSA ATCC 25923; Staphylococcus aureus, 3 h, 1% P80/Span 80 (35:65) in water",15 mm
same,zone of inhibition at 50 µg/disc,"MSSA ATCC 25923; Staphylococcus aureus, 3 h, 2% P80/Span 80 (35:65) in water",20 mm
same,zone of inhibition at 50 µg/disc,"MSSA ATCC 25923; Staphylococcus aureus, 3 h, 4% P80/Span 80 (35:65) in water",28 mm
same,zone of inhibition at 9000 µg/mL,"MSSA ATCC 25923; Staphylococcus aureus, 6 h, 20 μl of 9 mg/ml oritavancin in 2.5% P80, prediffusion at 4° C. 6 h, duplicate determinations",21 mm
same,zone of inhibition at 9000 µg/mL,"MSSA ATCC 25923; Staphylococcus aureus, 6 h, 20 μl of 9 mg/ml oritavancin in 2.5% P80, prediffusion at room temperature 6 h, duplicate determinations",18 mm
same,zone of inhibition at 360 µg/disc,"MSSA ATCC 25923; Staphylococcus aureus, 192 h, read-out: Zone diameter (mm ± SD), ATCC 25923, 360 μg in 5% P80, Experiment 2, disks stored 8 days, no prediffusion",14.5 mm
same,zone of inhibition at 360 µg/disc,"MSSA ATCC 25923; Staphylococcus aureus, 216 h, read-out: Average zone diameter, MSSA ATCC 25923, 360 μg oritavancin in 0.002% P80, without prediffusion, two disks (FIG. 1A), disks stored 9 days",10.5 mm
same,zone of inhibition at 360 µg/disc,"MSSA ATCC 25923; Staphylococcus aureus, 216 h, read-out: Average zone diameter, MSSA ATCC 25923, 360 μg oritavancin in 5% P80, with prediffusion (FIG. 1D), disks stored 9 days",17 mm
same,zone of inhibition at 360 µg/disc,"MSSA ATCC 25923; Staphylococcus aureus, 216 h, read-out: Average zone diameter, MSSA ATCC 25923, 360 μg oritavancin in 5% P80, without prediffusion (FIG. 1B), disks stored 9 days",14.8 mm
same,zone of inhibition at 360 µg/disc,"MSSA ATCC 25923; Staphylococcus aureus, 336 h, read-out: Zone diameter (mm ± SD), ATCC 25923, 360 μg in 5% P80, Experiment 1, disks stored 14 days, no prediffusion",15.3 ± 0.4 mm
same,zone of inhibition at 360 µg/disc,"MSSA ATCC 25923; Staphylococcus aureus, read-out: Average zone diameter, ATCC 25923, 360 μg oritavancin, excipient 5% P80, disks stored 5 days at room temperature, 3 h prediffusion, average of 2 disks",19 mm
same,zone of inhibition at 45 µg/disc,MSSA ATCC 25923; [3],12 mm
same,zone of inhibition at 45 µg/disc,MSSA ATCC 25923; [4],12.3 mm
same,zone of inhibition at 90 µg/disc,MSSA ATCC 25923; [3],11.8 mm
same,zone of inhibition at 90 µg/disc,MSSA ATCC 25923; [4],12.8 mm
same,zone of inhibition at 180 µg/disc,"MSSA ATCC 25923; Staphylococcus aureus, read-out: Average zone diameter, MSSA ATCC 25923, 180 μg oritavancin in 0.002% P80, CAMHA containing 1% P80, no prediffusion",12.3 mm
